According to patent publication US9924716B2, “Molecules having pesticidal utility, and intermediates, compositions, and processes, related thereto” (Dow AgroSciences LLC, priority 2016, dated 2018):

Tests used:
[1] = test system: Beet Armyworm (Spodoptera exigua, LAPHEG) second instar larvae; test: Bioassay on Beet Armyworm (BAW), 128-well diet tray assay; type: in vivo; conditions: for pest or weed control at 50 µg/cm2: Beet Armyworm, Table ABC Biological Results, read-out: BAW rating; for mortality at 0.05 µg/cm2: 0.05 μg/cm^2 on artificial diet; for mortality at 0.05 µg/cm2 / mortality at 0.5 µg/cm2 / mortality at 5 µg/cm2: read-out: Percent control (or mortality) BAW; for mortality at 0.5 µg/cm2: 0.5 μg/cm^2 on artificial diet; for mortality at 5 µg/cm2: 5 μg/cm^2 on artificial diet
Procedure: (§1) Certain molecules disclosed in this document were tested against BAW, CEW, and CL using procedures described in the following examples. In the reporting of the results, the “BAW, CEW, & CL Rating Table” was used (See Table Section).
Bioassays on BAW were conducted using a 128-well diet tray assay. one to five second instar BAW larvae were placed in each well (3 mL) of the diet tray that had been previously filled with 1 mL of artificial diet to which 50 μg/cm^2 of the test molecule (dissolved in 50 μL of 90:10 acetone-water mixture) had been applied (to each of eight wells) and then allowed to dry. Trays were covered with a clear self-adhesive cover and held at 25° C., 14:10 light-dark for five to seven days. Percent mortality was recorded for the larvae in each well; activity in the eight wells was then averaged. The results are indicated in the table entitled “Table ABC: Biological Results” (See Table Section).
(§2) Bioassays on BAW and CL were conducted according to the procedures outlined in Example A: Bioassays on Beet Armyworm (“BAW”) and Cabbage Looper (“CL”) using the indicated concentrations.

[2] = test system: Cabbage Looper (Trichoplusia ni, TRIPNI) second instar larvae; test: Bioassay on Cabbage Looper (CL), 128-well diet tray assay; type: in vivo; conditions: for pest or weed control at 50 µg/cm2: Cabbage Looper, Table ABC Biological Results, read-out: CL rating; for mortality at 0.05 µg/cm2: 0.05 μg/cm^2 on artificial diet; for mortality at 0.05 µg/cm2 / mortality at 0.5 µg/cm2 / mortality at 5 µg/cm2: read-out: Percent control (or mortality) CL; for mortality at 0.5 µg/cm2: 0.5 μg/cm^2 on artificial diet; for mortality at 5 µg/cm2: 5 μg/cm^2 on artificial diet
Procedure: as §1
Bioassays on CL were conducted using a 128-well diet tray assay. one to five second instar CL larvae were placed in each well (3 mL) of the diet tray that had been previously filled with 1 mL of artificial diet to which 50 μg/cm^2 of the test molecule (dissolved in 50 μL of 90:10 acetone-water mixture) had been applied (to each of eight wells) and then allowed to dry. Trays were covered with a clear self-adhesive cover and held at 25° C., 14:10 light-dark for five to seven days. Percent mortality was recorded for the larvae in each well; activity in the eight wells was then averaged. The results are indicated in the table entitled “Table ABC: Biological Results” (See Table Section).
as §2

C[C@H](NC(=O)CC(F)(F)F)NC(=O)c1ccc(/C(F)=C/C(c2ccc(Cl)c(Br)c2)C(F)(F)F)cc1C(F)(F)F (stereo partly drawn) [F37, 4-((Z)-3-(3-Bromo-4-chlorophenyl)-1,4,4,4-tetrafluorobut-1-en-1-yl)-2-(trifluoromethyl)-N—((R)-1-(3,3,3-trifluoropropanamido)ethyl)benzamide]
pest or weed control at 50 µg/cm2 [1]: 50 to 100% | pest or weed control at 50 µg/cm2 [2]: 50 to 100%

C[C@H](NC(=O)CCC(F)(F)F)NC(=O)c1ccc(/C(F)=C/C(c2cc(Cl)c(Cl)c(Cl)c2)C(F)(F)F)cc1 (stereo partly drawn) [FC2, 4-((Z)-1,4,4,4-Tetrafluoro-3-(3,4,5-trichlorophenyl)but-1-en-1-yl)-N—((R)-1-(4,4,4-trifluorobutanamido)ethyl)benzamide, reference compound]
mortality at 0.05 µg/cm2 [1]: 0% | mortality at 0.5 µg/cm2 [1]: 0% | mortality at 5 µg/cm2 [1]: 100% | mortality at 0.05 µg/cm2 [2]: 0% | mortality at 0.5 µg/cm2 [2]: 6% | mortality at 5 µg/cm2 [2]: 100%

C[C@H](NC(=O)NC1CC1)NC(=O)c1ccc(/C(F)=C/C(c2cc(Cl)c(Cl)c(Cl)c2)C(F)(F)F)cc1C(F)(F)F (stereo partly drawn) [F29, N—((S)-1-(3-cyclopropylureido)ethyl)-4-((Z)-1,4,4,4-tetrafluoro-3-(3,4,5-trichlorophenyl)but-1-en-1-yl)-2-(trifluoromethyl)benzamide]
pest or weed control at 50 µg/cm2 [1]: 50 to 100% | pest or weed control at 50 µg/cm2 [2]: 50 to 100%

Cc1cc(/C(F)=C/C(c2cc(Cl)c(Cl)c(Cl)c2)C(C)(F)F)ccc1C(=O)N[C@H](C)NC(=O)CC(F)(F)F (stereo partly drawn) [F6, 2-Methyl-4-((Z)-1,4,4-trifluoro-3-(3,4,5-trichlorophenyl)pent-1-en-1-yl)-N—((R)-1-(3,3,3-trifluoropropanamido)ethyl)benzamide]
pest or weed control at 50 µg/cm2 [1]: 50 to 100% | pest or weed control at 50 µg/cm2 [2]: 50 to 100%

C[C@H](NC(=O)CCC(F)(F)F)NC(=O)c1ccc(/C(F)=C/C(c2ccc(Cl)c(Cl)c2)C(C)(F)F)cc1C(F)(F)F (stereo partly drawn) [F40, 4-((Z)-3-(3,4-Dichlorophenyl)-1,4,4-trifluoropent-1-en-1-yl)-N—((R)-1-(4,4,4-trifluorobutanamido)ethyl)-2-(trifluoromethyl)benzamide]
pest or weed control at 50 µg/cm2 [1]: 50 to 100% | pest or weed control at 50 µg/cm2 [2]: 50 to 100%

C[C@H](NC(=O)CC(F)(F)F)NC(=O)c1ccc(/C(F)=C/C(c2cc(Cl)c(Cl)c(Cl)c2)C(F)(F)F)cc1Br (stereo partly drawn) [F4, 2-Bromo-4-((Z)-1,4,4,4-tetrafluoro-3-(3,4,5-trichlorophenyl)but-1-en-1-yl)-N—((R)-1-(3,3,3-trifluoropropanamido)ethyl)benzamide]
mortality at 0.05 µg/cm2 [1]: 100% | mortality at 0.5 µg/cm2 [1]: 100% | mortality at 5 µg/cm2 [1]: 100% | pest or weed control at 50 µg/cm2 [1]: 50 to 100% | mortality at 0.05 µg/cm2 [2]: 100% | mortality at 0.5 µg/cm2 [2]: 100% | mortality at 5 µg/cm2 [2]: 100% | pest or weed control at 50 µg/cm2 [2]: 50 to 100%

CCC(=O)N[C@@H](C)NC(=O)c1ccc(/C(F)=C/C(c2cc(Cl)c(Cl)c(Cl)c2)C(F)(F)F)cc1C(F)(F)F (stereo partly drawn) [F34, N—((R)-1-propionamidoethyl)-4-((Z)-1,4,4,4-tetrafluoro-3-(3,4,5-trichlorophenyl)but-1-en-1-yl)-2-(trifluoromethyl)benzamide]
pest or weed control at 50 µg/cm2 [1]: 50 to 100% | pest or weed control at 50 µg/cm2 [2]: 50 to 100%

C[C@H](NC(=O)CCC(F)(F)F)NC(=O)c1ccc(/C(F)=C/C(c2cc(Cl)c(Cl)c(Cl)c2)C(F)(F)F)cc1C(F)(F)F (stereo partly drawn) [F1, 4-((Z)-1,4,4,4-tetrafluoro-3-(3,4,5-trichlorophenyl)but-1-en-1-yl)-N—((R)-1-(4,4,4-trifluorobutanamido)ethyl)-2-(trifluoromethyl)benzamide]
mortality at 0.05 µg/cm2 [1]: 100% | mortality at 0.5 µg/cm2 [1]: 100% | mortality at 5 µg/cm2 [1]: 100% | pest or weed control at 50 µg/cm2 [1]: 50 to 100% | mortality at 0.05 µg/cm2 [2]: 100% | mortality at 0.5 µg/cm2 [2]: 100% | mortality at 5 µg/cm2 [2]: 100% | pest or weed control at 50 µg/cm2 [2]: 50 to 100%

C[C@@H](NC(=O)c1ccc(/C(F)=C/C(c2cc(Cl)c(Cl)c(Cl)c2)C(F)(F)F)cc1C(F)(F)F)NC(=O)C1(C#N)CC1 (stereo partly drawn) [PF31, N—((S)-1-(1-Cyanocyclopropane-1-carboxamido)ethyl)-4-((Z)-1,4,4,4-tetrafluoro-3-(3,4,5-trichlorophenyl)but-1-en-1-yl)-2-(trifluoromethyl)benzamide]
pest or weed control at 50 µg/cm2 [1]: 50 to 100% | pest or weed control at 50 µg/cm2 [2]: 50 to 100%

C[C@H](NC(=O)CC(F)(F)F)NC(=O)c1ccc(/C(F)=C/C(c2cc(Cl)c(Cl)c(Cl)c2)C(F)(F)F)cc1 (stereo partly drawn) [FC1, 4-((Z)-1,4,4,4-Tetrafluoro-3-(3,4,5-trichlorophenyl)but-1-en-1-yl)-N—((R)-1-(3,3,3-trifluoropropanamido)ethyl)benzamide, reference compound]
mortality at 0.05 µg/cm2 [1]: 0% | mortality at 0.5 µg/cm2 [1]: 0% | mortality at 5 µg/cm2 [1]: 7% | mortality at 0.05 µg/cm2 [2]: 0% | mortality at 0.5 µg/cm2 [2]: 0% | mortality at 5 µg/cm2 [2]: 100%

C[C@H](NC(=O)CCC(F)(F)F)NC(=O)c1ccc(/C(F)=C/C(c2cc(Cl)c(Cl)c(Cl)c2)C(F)(F)F)cc1Cl (stereo partly drawn) [F9, 2-Chloro-4-((Z)-1,4,4,4-tetrafluoro-3-(3,4,5-trichlorophenyl)but-1-en-1-yl)-N—((R)-1-(4,4,4-trifluorobutanamido)ethyl)benzamide]
mortality at 0.05 µg/cm2 [1]: 100% | mortality at 0.5 µg/cm2 [1]: 100% | mortality at 5 µg/cm2 [1]: 100% | pest or weed control at 50 µg/cm2 [1]: 50 to 100% | mortality at 0.05 µg/cm2 [2]: 100% | mortality at 0.5 µg/cm2 [2]: 100% | mortality at 5 µg/cm2 [2]: 100% | pest or weed control at 50 µg/cm2 [2]: 50 to 100%

C[C@H](NC(=O)CC(F)(F)F)NC(=O)c1ccc(/C(F)=C/C(c2ccc(Cl)c(Cl)c2)C(C)(F)F)cc1C(F)(F)F (stereo partly drawn) [F39, 4-((Z)-3-(3,4-Dichlorophenyl)-1,4,4-trifluoropent-1-en-1-yl)-2-(trifluoromethyl)-N—((R)-1-(3,3,3-trifluoropropanamido)ethyl)benzamide]
pest or weed control at 50 µg/cm2 [1]: 50 to 100% | pest or weed control at 50 µg/cm2 [2]: 50 to 100%

C[C@H](NC(=O)CCC(F)(F)F)NC(=O)c1ccc(/C(F)=C/C(c2cc(Cl)c(Cl)c(Cl)c2)C(C)(F)F)cc1C(F)(F)F (stereo partly drawn) [F10, 4-((Z)-1,4,4-Trifluoro-3-(3,4,5-trichlorophenyl)pent-1-en-1-yl)-N—((R)-1-(4,4,4-trifluorobutanamido)ethyl)-2-(trifluoromethyl)benzamide]
pest or weed control at 50 µg/cm2 [1]: 50 to 100% | pest or weed control at 50 µg/cm2 [2]: 50 to 100%

C[C@@H](NC(=O)c1ccc(/C(F)=C/C(c2cc(Cl)c(Cl)c(Cl)c2)C(F)(F)F)cc1C(F)(F)F)NC(=O)C1CC1 (stereo partly drawn) [F27, N—((R)-1-(cyclopropanecarboxamido)ethyl)-4-((Z)-1,4,4,4-tetrafluoro-3-(3,4,5-trichlorophenyl)but-1-en-1-yl)-2-(trifluoromethyl)benzamide]
pest or weed control at 50 µg/cm2 [1]: 50 to 100% | pest or weed control at 50 µg/cm2 [2]: 50 to 100%

CC[C@H](NC(=O)CC(F)(F)F)NC(=O)c1ccc(/C(F)=C/C(c2cc(Cl)c(Cl)c(Cl)c2)C(F)(F)F)cc1C(F)(F)F (stereo partly drawn) [F35, 4-((Z)-1,4,4,4-Tetrafluoro-3-(3,4,5-trichlorophenyl)but-1-en-1-yl)-2-(trifluoromethyl)-N—((R)-1-(3,3,3-trifluoropropanamido)propyl)benzamide]
pest or weed control at 50 µg/cm2 [1]: 50 to 100% | pest or weed control at 50 µg/cm2 [2]: 50 to 100%

CCC(F)(F)C(/C=C(\F)c1ccc(C(=O)N[C@H](C)NC(=O)CC(F)(F)F)c(C(F)(F)F)c1)c1cc(Cl)c(Cl)c(Cl)c1 (stereo partly drawn) [F20, 4-((Z)-1,4,4-Trifluoro-3-(3,4,5-trichlorophenyl)hex-1-en-1-yl)-2-(trifluoromethyl)-N—((R)-1-(3,3,3-trifluoropropanamido)ethyl)benzamide]
pest or weed control at 50 µg/cm2 [1]: 50 to 100% | pest or weed control at 50 µg/cm2 [2]: 50 to 100%

C[C@H](NC(=O)CC(F)(F)F)NC(=O)c1ccc(/C(F)=C/C(c2cc(Cl)c(Cl)c(Cl)c2)C(C)(F)F)cc1C(F)(F)F (stereo partly drawn) [F8, 4-((Z)-1,4,4-Trifluoro-3-(3,4,5-trichlorophenyl)pent-1-en-1-yl)-2-(trifluoromethyl)-N—((R)-1-(3,3,3-trifluoropropanamido)ethyl)benzamide]
pest or weed control at 50 µg/cm2 [1]: 50 to 100% | pest or weed control at 50 µg/cm2 [2]: 50 to 100%

CCC(F)(F)C(/C=C(\F)c1ccc(C(=O)N[C@H](C)NC(=O)CCC(F)(F)F)c(C(F)(F)F)c1)c1cc(Cl)c(Cl)c(Cl)c1 (stereo partly drawn) [F21, 4-((Z)-1,4,4-Trifluoro-3-(3,4,5-trichlorophenyl)hex-1-en-1-yl)-N—((R)-1-(4,4,4-trifluorobutanamido)ethyl)-2-(trifluoromethyl)benzamide]
pest or weed control at 50 µg/cm2 [1]: 50 to 100% | pest or weed control at 50 µg/cm2 [2]: 50 to 100%
